Assay results from patent publication US20230051589A1, “COMPOUNDS AND COMPOSITIONS FOR TREATING CONDITIONS ASSOCIATED WITH NLRP ACTIVITY” (Novartis AG, priority 2018, published 2023).

Tested on: IL-1β production in PMA-differentiated THP-1 cells
Assay: IL-1β production in PMA-differentiated THP-1 cells stimulated with gramicidin (hTHP-1 assay, 2% fetal bovine serum; Procedures 1-3)
Type: cell-based, human
Conditions: Homo sapiens, THP-1, hTHP-1 assay containing 2% fetal bovine serum, Table B2, class symbols; read-out: IC50
How it was run: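 IL-1β released into supernatants was read by HTRF after 2 h gramicidin (5 μM) challenge. Before challenge, compounds (3-fold dilutions, top 100 μM, 0.37% DMSO) were given 1 h on THP-1 cells differentiated with PMA (20 ng/ml, 16-18 h) and held in 2% FBS medium.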

| IC50 [µM] | SMILES |
| --- | --- |
| 5 to 30 | CC(C)(O)c1ncc(S(N)(=O)=NC(=O)Nc2cc3c(c4c2CCC4=O)CCC3)s1 (single isomer, unassigned) [Example 565, (R) or (S)-2-(2-hydroxypropan-2-yl)-N′-((1-oxo-1,2,3,6,7,8-hexahydro-as-indacen-4-yl)carbamoyl) thiazole-5-sulfonimidamide] |
| 1 to 5 | CN1CCc2ccc(S(N)(=O)=NC(=O)Nc3c4c(cc5c3CCC5)CCC4)cc2C1 (single isomer, unassigned) [Example 585, (R) or (S)-N′-((1,2,3,5,6,7-hexahydro-s-indacen-4-yl)carbamoyl)-2-methyl-1,2,3,4-tetrahydroisoquinoline-7-sulfonimidamide] |

Same assay, conditions: Homo sapiens, THP-1, hTHP-1 assay containing 2% fetal bovine serum, Table B2, given as bound; read-out: IC50

| IC50 [µM] | SMILES |
| --- | --- |
| > 30 | CN1CCc2ccc(S(N)(=O)=NC(=O)Nc3c4c(cc5c3CCC5)CCC4)cc2C1 (single isomer, unassigned) [Example 584, (S) or (R)-N′-((1,2,3,5,6,7-hexahydro-s-indacen-4-yl)carbamoyl)-2-methyl-1,2,3,4-tetrahydroisoquinoline-7-sulfonimidamide] |

Same assay, conditions: hTHP-1 assay containing 2% fetal bovine serum, Table B2, class symbols; read-out: IC50

| SMILES | IC50 [µM] |
| --- | --- |
| C=CCc1c2c(c(NC(=O)N=S(N)(=O)c3cc(C(C)(C)O)n(-c4ccccc4)n3)c3c1CCC3)CCC2 (single isomer, unassigned) [Example 567, (S) or (R)-N′-((8-allyl-1,2,3,5,6,7-hexahydro-s-indacen-4-yl)carbamoyl)-5-(2-hydroxypropan-2-yl)-1-phenyl-1H-pyrazole-3-sulfonimidaimde] | 5 to 30 |
| NS(=O)(=NC(=O)Nc1c2c(cc3c1CCC3)CCC2)c1cnn2c1OCCC2 (single isomer, unassigned) [Example 569, (R) or (S)-N′-((1,2,3,5,6,7-hexahydro-s-indacen-4-yl)caramoyl)-6,7-dihydro-5H-pyrazolo[5,1 - b][1,3]oxazine-3-sulfonimidamide] | 0.04 to 0.2 |
| CNCc1cc(F)c(S(N)(=O)=NC(=O)Nc2c3c(cc4c2CCC4)CCC3)s1 (single isomer, unassigned) [Example 570, (R) or (S)-3-fluoro-N′-((1,2,3,5,6,7-hcxahydro-s-indacen-4-yl)carbamoyl)-5-((methylamino)methyl) thiophene-2-sulfonimidamide] | 0.008 to 0.04 |
| CC(C)(O)c1cnc(S(N)(=O)=NC(=O)Nc2c3c(cc4c2C(=O)CC4)CCC3)s1 (single isomer, unassigned) [Example 573, (S) or (R)-5-(2-hydroxypiopan-2-yl)-N′-((3-oxo-1,2,3,5,6,7-hexahydro-s-indacen-4-yl)carbamoyl)thiazole-2-sulfonimidamide] | 5 to 30 |
| CC(C)(O)c1cc(S(N)(=O)=NC(=O)Nc2c3c(c(C#N)c4c2CCC4)CCC3)nn1-c1ccccc1 (single isomer, unassigned) [Example 575, (R) or (S)-N′-((8-cyano-1,2,3,5,6,7-hexahydro-s-indacen-4-yl)carbamoyl)-5-(2-hydroxypropan-2-yl)-1-pheny-1H-pyrazole-3-sulfonimidamide] | 0.2 to 1 |
| CC(C)(O)c1cc(C#N)cc(S(N)(=O)=NC(=O)Nc2c3c(c(C#N)c4c2CCC4)CCC3)c1 (single isomer, unassigned) [Example 578, (R) or (S)-3-cyano-N′-((8-cyano-1,2,3,5,6,7-hexahydro-s-indacen-4-yl)carbamoyl)-5-(2-hydroxypropan-2-yl) benzenesulfonimidamide] | 1 to 5 |
| CC(C)(O)c1cc(C#N)cc(S(N)(=O)=NC(=O)Nc2c3c(c(C#N)c4c2CCC4)CCC3)c1 (single isomer, unassigned) [Example 579, (S) or (R)-3-cyano-N′-((8-cyano-1,2,3,5,6,7-hexahydro-5-indacen-4-yl)carbamoyl)-5-(2-hydroxypropan-2-yl) benzenesulfonimidamide] | 5 to 30 |
| CN(C)Cc1ccc(S(N)(=O)=NC(=O)Nc2c3c(cc4c2CC4)CCC3)cc1 (single isomer, unassigned) [Example 581, (S) or (R)-4-((dimethylamino)methyl)-N′-((2,4,5,6-tetrahydro-1H-cyclobuta[f]inden-3-yl)carbamoyl) benzenesulfonimidamide] | 5 to 30 |

Next, values leading:

| IC50 [µM] | SMILES |
| --- | --- |
| 1 to 5 | C=CCc1c2c(c(NC(=O)N=S(N)(=O)c3cc(C(C)(C)O)n(-c4ccccc4)n3)c3c1CCC3)CCC2 (single isomer, unassigned) [Example 566, (R) or (S)-N′-((8-allyl-1,2,3,5,6,7-hexahydro-s-indacen-4-yl)carbamoyl)-5-(2-hydroxypropan-2-yl)-1-phenyl-1H-pyrazole-3-sulfonimidaimde] |
| 5 to 30 | NS(=O)(=NC(=O)Nc1c2c(cc3c1CCC3)CCC2)c1cnn2c1OCCC2 (single isomer, unassigned) [Example 568, (S) or (R)-N′-((1,2,3,5,6,7-hexahydro-s-indacen-4-yl)carbamoyl)-6,7-dihydro-5H-pyrazolo[5,1-b][1,3]oxazine-3-sulfonimidamide] |
| 0.2 to 1 | CNCc1cc(F)c(S(N)(=O)=NC(=O)Nc2c3c(cc4c2CCC4)CCC3)s1 (single isomer, unassigned) [Example 571, (S) or (R)-3-fluoro-N′-((1,2,3,5,6,7-hcxahydro-s-indacen-4-yl)carbamoyl)-5-((methylamino)methyl) thiophene-2-sulfonimidamide] |
| 0.2 to 1 | CC(C)(O)c1cnc(S(N)(=O)=NC(=O)Nc2c3c(cc4c2C(=O)CC4)CCC3)s1 (single isomer, unassigned) [Example 572, (R) or (S)-5-(2-hydroxypiopan-2-yl)-N′-((3-oxo-1,2,3,5,6,7-hexahydro-s-indacen-4-yl)carbamoyl)thiazole-2-sulfonimidamide] |
| 5 to 30 | CC(C)(O)c1cc(S(N)(=O)=NC(=O)Nc2c3c(c(C#N)c4c2CCC4)CCC3)nn1-c1ccccc1 (single isomer, unassigned) [Example 574, (S) or (R)-N′-((8-cyano-1,2,3,5,6,7-hexahydro-s-indacen-4-yl)carbamoyl)-5-(2-hydroxypropan-2-yl)-1-pheny-1H-pyrazole-3-sulfonimidamide] |
| 0.2 to 1 | CN(C)Cc1ccc(S(N)(=O)=NC(=O)Nc2c3c(cc4c2CC4)CCC3)cc1 (single isomer, unassigned) [Example 580, (R) or (S)-4-((dimethylamino)methyl)-N′-((2,4,5,6-tetrahydro-1H-cyclobuta[f]inden-3 - yl)carbamoyl) benzenesulfonimidamide] |
| 0.2 to 1 | CN(C)Cc1ccc(S(N)(=O)=NC(=O)Nc2c3c(cc4c2CC4)CC3)cc1 (single isomer, unassigned) [Example 582, (R) or (S)-4-((dimethylamino)methyl)-N′-(tricyclo[6.2.0.03,6]deca-1,3(6),7-trien-2-ylcarbamoyl) benzenesulfonimidamide] |
| 5 to 30 | CN(C)Cc1ccc(S(N)(=O)=NC(=O)Nc2c3c(cc4c2CC4)CC3)cc1 (single isomer, unassigned) [Example 583, (S) or (R)-4-((dimethylamino)methyl)-N′-(tricyclo[6.2.0.03,6]deca-1,3(6),7-trien-2-ylcarbamoyl) benzenesulfonimidamide] |

Same assay, conditions: hTHP-1 assay containing 2% fetal bovine serum, Table B2, given as bound; read-out: IC50

| IC50 [µM] | SMILES |
| --- | --- |
| > 30 | N[S@](=O)(=NC(=O)Nc1c2c(cc3c1CCC3)CCC2)c1ccc(OC(F)F)cc1 (single isomer, unassigned) [Example 577, (S) or (R)-4-(difluoromethoxy)-N′-((1,2,3,5,6,7-hexahydro-s-indacen-4-yl)carbamoyl) benzenesulfonimidamide] |
